Assay results: patent US11008295B2, “Compounds having antiinfective, antitumoral and antifungal activity” (priority 2017, dated 2021)

How the values were obtained:
Experiment in all cases: Kirby-Bauer disk diffusion susceptibility test
N. carnea = format: cell-based, Nocardia carnea
Procedure: (§1) Bacterial strains, from clinical origin, were supplied by the National Center for Microbiology, Institute of Health Carlos III (Majadahonda, Madrid). They are detailed in Table I.
(§2) Bacterial cells suspension in sterile saline was prepared from a culture of 24-72 h, depending on bacterial species, in Mueller-Hinton Agar with 5% sheep blood. Each suspension was adjusted to a fixed size inoculum of 1-5×10^8 CFU/ml with a spectrophotometer (Ferraro, M J National Committee for Clinical Laboratory Standards. 2000).
(§3) Kirby-Bauer disk diffusion susceptibility test protocol was utilized to determine the sensitivity or resistance of pathogenic bacteria against the compounds and others antibiotics. The absence of growth around the disks is an indirect measure of the ability of this compound to inhibit an organism (Kirby, W. et al., Antibiotics Annu. 1956-1957:892). After 18 to 72 hours of incubation at […], with or without CO2, under aerobic or anaerobic conditions, depending on the bacterial species, halo of growth inhibition were obtained and evaluated.
(§4) Interpretation of susceptibility and resistance was based on the presence or absence of a zone of inhibition surrounding the disk. Kirby-Bauer disk diffusion susceptibility test is a common method which uses antibiotic-impregnated wafers to test whether bacteria are affected by antibiotics. The size of the zone of inhibition depends on how effective the antibiotic is at stopping the growth of the bacterium. A stronger antibiotic will create a larger zone, because a lower concentration of the antibiotic is enough to stop growth.

T. pulmonis = format: cell-based, Tsukamurella pulmonis
Procedure: as §1, §2, §3, §4

A. baumannii = format: cell-based
Procedure: as §1, §2, §3, §4

E. coli = format: cell-based
Procedure: as §1, §2, §3, §4

E. faecalis = format: cell-based
Procedure: as §1, §2, §3, §4

E. faecium = format: cell-based
Procedure: as §1, §2, §3, §4

N. cyriacigeorgica = format: cell-based
Procedure: as §1, §2, §3, §4

P. aeruginosa = format: cell-based
Procedure: as §1, §2, §3, §4

S. aureus = format: cell-based
Procedure: as §1, §2, §3, §4

S. epidermidis = format: cell-based
Procedure: as §1, §2, §3, §4

B. cereus = format: cell-based, Bacillus cereus
Procedure: as §1, §2, §3, §4

M. abscessus = format: cell-based, Mycobacterium abscessus; settings: M. abscessus strain 690, isolation year 2012
Procedure: as §1, §2, §3, §4

M. chelonae = format: cell-based; settings: M. chelonae strain 870, isolation year 2011
Procedure: as §1, §2, §3, §4

M. fortuitum = format: cell-based; settings: M. fortuitum strain 1080, isolation year 2011
Procedure: as §1, §2, §3, §4

[1] = N. carnea strain 40, isolation year 2011
[2] = N. carnea strain 769, isolation year 2009
[3] = T. pulmonis strain 40, isolation year 2015
[4] = T. pulmonis strain 1991, isolation year 2009
[5] = A. baumannii strain 300, isolation year 2001
[6] = A. baumannii strain 1301, isolation year 2009
[7] = E. coli strain 29, isolation year 2012
[8] = E. coli strain 305, isolation year 2008
[9] = E. faecalis strain 52, isolation year 2006
[10] = E. faecalis strain 1052, isolation year 2008
[11] = E. faecium strain 26, isolation year 2012
[12] = E. faecium strain 209, isolation year 2015
[13] = N cyriacigeorgica strain 199, isolation year 2005
[14] = N. cyriacigeorgica strain 30, isolation year 2005
[15] = P. aeruginosa strain 96, isolation year 2014
[16] = P. aeruginosa strain 115, isolation year 2013
[17] = S. aureus strain 282, isolation year 2005
[18] = S. aureus strain 890, isolation year 2010
[19] = S. epidermidis strain 188, isolation year 2009
[20] = S. epidermidis strain 982, isolation year 2006
[21] = B. cereus strain 25, isolation year 2014
[22] = B. cereus strain 182, isolation year 2013
Also: key: I = intermediate activity; S = susceptibility; R = Resistance.

Row | Compound | Sensitivity or resistance of the strain to the antibiotic (N. carnea; [1]) | Sensitivity or resistance of the strain to the antibiotic (N. carnea; [2]) | Sensitivity or resistance of the strain to the antibiotic (T. pulmonis; [3]) | Sensitivity or resistance of the strain to the antibiotic (T. pulmonis; [4]) | Sensitivity or resistance of the strain to the antibiotic (A. baumannii; [5]) | Sensitivity or resistance of the strain to the antibiotic (A. baumannii; [6]) | Sensitivity or resistance of the strain to the antibiotic (E. coli; [7]) | Sensitivity or resistance of the strain to the antibiotic (E. coli; [8]) | Sensitivity or resistance of the strain to the antibiotic (E. faecalis; [9]) | Sensitivity or resistance of the strain to the antibiotic (E. faecalis; [10]) | Sensitivity or resistance of the strain to the antibiotic (E. faecium; [11]) | Sensitivity or resistance of the strain to the antibiotic (N. cyriacigeorgica; [13]) | Sensitivity or resistance of the strain to the antibiotic (N. cyriacigeorgica; [14]) | Sensitivity or resistance of the strain to the antibiotic (P. aeruginosa; [15]) | Sensitivity or resistance of the strain to the antibiotic (S. aureus; [17]) | Sensitivity or resistance of the strain to the antibiotic (S. aureus; [18]) | Sensitivity or resistance of the strain to the antibiotic (S. epidermidis; [19]) | Sensitivity or resistance of the strain to the antibiotic (S. epidermidis; [20]) | Sensitivity or resistance of the strain to the antibiotic (B. cereus; [21]) | Sensitivity or resistance of the strain to the antibiotic (B. cereus; [22]) | other results
1 | NCC[C@H](O)C(=O)N[C@@H]1C[C@H](N)[C@@H](O[C@H]2O[C@H](CN)[C@@H](O)[C@H](O)[C@H]2O)[C@H](O)[C@H]1O[C@H]1O[C@H](CO)[C@@H](O)[C@H](N)[C@H]1O [AMK, Amikacin] | R | S | R | S | R | S | S | S | S | S | S | R | S | S | S | S | S | S | – | – | Sensitivity or resistance of the strain to the antibiotic (E. faecium; [12]): R; Sensitivity or resistance of the strain to the antibiotic (P. aeruginosa; [16]): S
2 | CO/N=C(\C(=O)N[C@@H]1C(=O)N2C(C(=O)O)=C(CSc3nc(=O)c(O)nn3C)CS[C@H]12)c1csc(N)n1 [CEF, Ceftriazone] | – | – | – | – | R | R | – | – | – | – | – | – | – | R | – | – | – | – | – | – | –
3 | CCC[C@@H]1C[C@@H](C(=O)N[C@@H]([C@H]2O[C@H](SC)[C@H](O)[C@@H](O)[C@H]2O)[C@H](C)Cl)N(C)C1 [CLI, Clindamycin] | – | – | – | – | – | – | – | – | – | – | – | – | – | – | R | R | S | R | R | R | –
4 | CO/N=C(\C(=O)N[C@@H]1C(=O)N2C(C(=O)O)=C(COC(C)=O)CS[C@H]12)c1csc(N)n1 [CTX, Cefotaxime] | S | S | R | S | – | – | S | R | R | R | R | R | S | S | – | – | – | – | – | – | Sensitivity or resistance of the strain to the antibiotic (E. faecium; [12]): R; Sensitivity or resistance of the strain to the antibiotic (P. aeruginosa; [16]): S
5 | CC[C@H]1OC(=O)[C@H](C)[C@@H](O[C@H]2C[C@@](C)(OC)[C@@H](O)[C@H](C)O2)[C@H](C)[C@@H](O[C@@H]2O[C@H](C)C[C@H](N(C)C)[C@H]2O)[C@](C)(O)C[C@@H](C)C(=O)[C@H](C)[C@@H](O)[C@]1(C)O [ERI, Erythromycin] | R | R | R | S | – | – | S | S | – | – | – | R | R | – | R | R | S | R | R | R | Sensitivity or resistance of the strain to the antibiotic (M. abscessus): S; Sensitivity or resistance of the strain to the antibiotic (M. chelonae): R; Sensitivity or resistance of the strain to the antibiotic (M. fortuitum): R
6 | C[C@@H](O)[C@H]1C(=O)N2C(C(=O)O)=C(S[C@@H]3CN[C@H](C(=O)N(C)C)C3)[C@H](C)[C@H]12 [MER, Meropenem] | – | – | – | – | R | S | – | – | – | – | – | – | – | R | – | – | – | – | – | – | –
7 | CO[C@H]1/C=C/O[C@@]2(C)Oc3c(C)c(O)c4c(O)c(c(/C=N/N5CCN(C)CC5)c(O)c4c3C2=O)NC(=O)/C(C)=C\C=C\[C@H](C)[C@H](O)[C@@H](C)[C@@H](O)[C@@H](C)[C@H](OC(C)=O)[C@@H]1C [RIF, Rifampicin] | – | – | – | – | – | – | – | – | – | – | – | – | – | – | – | – | – | – | S | S | –
8 | CN(C)[C@@H]1C(O)=C(C(N)=O)C(=O)[C@@]2(O)C(O)=C3C(=O)c4c(O)cccc4[C@@](C)(O)[C@H]3C[C@@H]12 [TET, Tetracycline] | – | – | – | – | – | – | – | – | – | – | – | – | – | – | S | R | S | S | R | S | –
9 | NC[C@H]1O[C@H](O[C@H]2[C@H](O)[C@@H](O[C@H]3O[C@H](CO)[C@@H](O)[C@H](N)[C@H]3O)[C@H](N)C[C@@H]2N)[C@H](N)C[C@@H]1O [TOB, Tobramycin] | – | – | – | – | S | S | – | – | – | – | – | – | – | S | – | – | – | – | – | – | –
10 | CN[C@H](CC(C)C)C(=O)N[C@H]1C(=O)N[C@@H](CC(N)=O)C(=O)N[C@H]2C(=O)N[C@H]3C(=O)N[C@H](C(=O)N[C@H](C(=O)O)c4cc(O)cc(O)c4-c4cc3ccc4O)[C@H](O)c3ccc(c(Cl)c3)Oc3cc2cc(c3O[C@@H]2O[C@H](CO)[C@@H](O)[C@H](O)[C@H]2O[C@H]2C[C@](C)(N)[C@H](O)[C@H](C)O2)Oc2ccc(cc2Cl)[C@H]1O [VAN, Vancomycin] | – | – | – | – | – | – | – | – | S | S | I | – | – | – | S | S | S | S | S | S | Sensitivity or resistance of the strain to the antibiotic (E. faecium; [12]): S
11 | Amoxicillin/Clavulanate [A/C] | S | S | R | S | – | – | S | R | – | – | – | R | R | – | – | – | – | – | – | – | –
12 | Cotrimoxazole [SxT] | R | R | R | S | – | – | – | – | – | – | – | S | S | – | – | – | – | – | – | – | Sensitivity or resistance of the strain to the antibiotic (M. abscessus): S; Sensitivity or resistance of the strain to the antibiotic (M. chelonae): R; Sensitivity or resistance of the strain to the antibiotic (M. fortuitum): S
13 | Gentamicin | – | – | – | – | – | – | S | S | S | S | S | – | – | – | R | R | S | R | – | – | Sensitivity or resistance of the strain to the antibiotic (E. faecium; [12]): S
